Measurements: patent publication US20260293937A1, “SHRIMP FEED AND METHODS OF USE THEREOF” (Organicin Scientific, Inc., priority 2023, published 2026)
Values joined by “and” are separate entries in the source; they are usually repeats but may differ in a detail not shown here. Equal values may be shown once. No end group written: not given here.

Tests used:
[1] = system: brine shrimp (Artemia salina); assay: Brine shrimp toxicity of Nisin formulations (Example 4); format: in vivo; settings: Nisin in citric acid buffer solution, reduced pH; data not shown
Experimental: This Example describes the efficacy of various Nisins: Nisin Z, Nisin A, and ImmuCell Nisin A. This experiment assessed the safety and antimicrobial efficacy of various Nisin formulations in treating Vibrio parahaemolyticus infections, a common pathogen in aquaculture environments. Brine shrimp (Artemia salina) were utilized as a model organism to simulate potential impacts on Pacific whiteleg shrimp (Penaeus vannamei).
Nisin variants (Nisin A, Nisin Z, and ImmuCell Nisin A) were dissolved in either citric acid buffer (CAB, pH 3.4) for Nisin A or dH2O for Nisin Z to make a stock solution of 4.86 mg/mL. Serial dilutions were performed to achieve the different concentrations (4.86 mg/mL to 0.005 mg/mL) for the experiments.
Artemia salina eggs were hatched in artificial seawater (Instant Ocean) under controlled conditions. Newly hatched brine shrimp were then exposed to varying concentrations of each Nisin solution in experimental tanks. A separate set of tanks was used for each type of Nisin formulation.
Control tanks (treated with either CAB or saline water) were prepared to observe the natural behavior and survival rate of Artemia salina without Nisin exposure.
Brine shrimp were divided into different tanks for exposure to varying concentrations (2.43 mg/mL, 0.608 mg/mL, 0.152 mg/mL, and 0.038 mg/mL) of Nisin A, Nisin Z, and ImmuCell Nisin A.
Mortality and behavior of the brine shrimp were recorded at 24 and 48 hours post-exposure. For the antimicrobial tests, the diameter of inhibition zones on agar plates containing the laboratory control strains were measured and recorded.

[2] = system: Vibrio parahaemolyticus; assay: Minimum inhibitory concentration by serial two-fold dilution spotted on Vibrio lawns; format: cell-based; settings: individual V. parahaemolyticus lines; 37° C., 16 to 20 hours
Experimental: (§1) This Example describes the materials and methods, and results of a serial dilution experiment to determine the Minimum Inhibitory Concentration (MIC) of Nisin in reducing a concentration of pathogenic Vibrio.
(§2) On the day before the experiment, Vibrio stock were prepared by sterilizing an inoculation loop, cooling the product, and extracting cells. Such extract was incubated at 37° C. for 16 to 20 hours. The density of cells was normalized to a cell density of approximately 10^7 to 10^8 CFU/mL and 100 uL lawns were prepared at a cell density of about 10^6 to 10^7 CFU using sterile glass beads. Four lawns were made so that each Nisin dilution could be tested on two identical plates.
(§3) 5 μL of two-fold dilutions (See Table 1, below) of Nisin (Immucell; 99% pure), or shrimp feed (without Nisin), citric acid, or DH20 negative controls, respectively, were spotted on the plates, which were incubated at 37° C. for 16 to 20 hours. The minimum inhibitory concentration was determined. In particular, plates were characterized based upon the presence (0) or absence (1) of Vibrio growth.

[3] = system: Vibrio alginolyticus; assay: as above; format: cell-based; settings: individual V. alginolyticus lines; 37° C., 16 to 20 hours
Experimental: as §1, §2, §3

[4] = system: Vibrio cholerae; assay: as above; format: cell-based; settings: individual V. cholerae lines; 37° C., 16 to 20 hours
Experimental: as §1, §2, §3

Substance: Nisin: Nisin (Immucell; 99% pure) in Example 1; bacteriocin Nisin in shrimp feed at 0.84, 8.4 and 84 mg/g in Example 2 (ITSISLCTPGCKTGALMGCNMKTATCHCSIHVSK; cysteine pairing not given here; also: lantibiotic, modifications not placed; UniProt P13068 24-57, looked up)
- cause of mortality in toxicity trials [1]: mortality that is not related to the peptide Nisin itself
- MIC [2]: 1,057.5 ug/mL and 33.1 ug/mL and 66.1 ug/mL and 528.8 ug/mL and 8.3 ug/mL and 1.06 wt/v % and 0.03 wt/v % and 0.07 wt/v % and 0.53 wt/v % and 0.01 wt/v %
- MIC [3]: 8.3 ug/mL and 66.1 ug/mL and 2,115.0 ug/mL and 0.01 wt/v % and 0.07 wt/v % and 2.12 wt/v %
- MIC [4]: 1,057.5 ug/mL and 8.3 ug/mL and 2,115.0 ug/mL and 132.2 ug/mL and 1.06 wt/v % and 0.01 wt/v % and 2.12 wt/v % and 0.13 wt/v %
